From PubChem BioAssay (NCI)
Several values for one entry are separate records, joined by “and”; a condition that tells them apart may be missing. Identical values can stand only once.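 All cell lines were grown in 96-well plates and treated with compound for 48 hours. Here, GI50 denotes the concentration required for 50% inhibition of growth. TGI denotes the concentration required for complete inhibition of growth.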

Columns and labels:
Assay in all cases: inhibition of tumour cell growth, NCI panel, 48 h
MOLT-4 leukemia = system: MOLT-4 leukemia
ACHN renal = system: ACHN renal
HCC-2998 colon = system: HCC-2998 colon
SF-539 CNS = system: SF-539 CNS
CAKI-1 renal = system: CAKI-1 renal
EKVX NSCLC = system: EKVX NSCLC
OVCAR-8 ovarian = system: OVCAR-8 ovarian
A549 NSCLC = system: A549 NSCLC
RXF 393 renal = system: RXF 393 renal
CCRF-CEM leukemia = system: CCRF-CEM leukemia

Row | SMILES | GI50 (MOLT-4 leukemia) | TGI (MOLT-4 leukemia) | GI50 (ACHN renal) | TGI (ACHN renal) | GI50 (HCC-2998 colon) | TGI (HCC-2998 colon) | GI50 (SF-539 CNS) | TGI (SF-539 CNS) | GI50 (CAKI-1 renal) | TGI (CAKI-1 renal) | GI50 (EKVX NSCLC) | TGI (EKVX NSCLC) | GI50 (OVCAR-8 ovarian) | TGI (OVCAR-8 ovarian) | GI50 (A549 NSCLC) | TGI (A549 NSCLC) | GI50 (RXF 393 renal) | TGI (RXF 393 renal) | GI50 (CCRF-CEM leukemia) | TGI (CCRF-CEM leukemia)
1 | C=C1C(=O)O[C@H]2C3OC3(C)CC/C=C(/C(=O)OC)[C@@H](OC(C)=O)[C@H](OC(=O)C3(C)OC3C)[C@H]12 (stereo not given in full) | 216 nM and 0.323 µg/mL | 938 nM and 1.17 µg/mL | 2.07 µM and 434 nM and 0.944 µg/mL | 6.36 µM and 3.12 µM and 2.75 µg/mL | 3.65 µM and 2.5 µg/mL | 12.4 µM and 4.62 µg/mL | 2.88 µM and 1.98 µM and 3.21 µg/mL | 7.5 µM and 6.28 µM and 7.06 µg/mL | 206 nM and 1.12 µM and 0.579 µg/mL | 478 nM and 2.35 µM and 1.57 µg/mL | 5.71 µM and 4.57 µM and 3.81 µg/mL | 26.8 µM and 9.61 µg/mL | 2.13 µM and 699 nM and 0.351 µg/mL | 2.98 µM and 3.01 µg/mL | 9.7 µM and 12.5 µM and 5.5 µg/mL | 31.6 µM and 17.5 µg/mL | 364 nM and 190 nM and 0.407 µg/mL | 838 nM and 531 nM and 0.951 µg/mL | 0.173 µM and 0.231 µM | 0.461 µM and 1.15 µM
2 | CCN(CC)CCOc1ccc(NC(=O)C(C(C)C)N2C(=O)/C(=C/c3ccc(Br)cc3)SC2=S)cc1 (stereo not given) | 2.68 µM | 9.38 µM | 1.78 µM | 3.25 µM | 2.21 µM | 5.13 µM | 1.87 µM | 3.55 µM | 4.38 µM | 17.1 µM | 5.24 µM | 18.8 µM | 3.24 µM | 10.3 µM | 3.37 µM | 12.5 µM | 5.6 µM | 19.1 µM | 2.82 µM | 9.52 µM
3 | C=C1CCCC2OC(OC)CCC12 (stereo not given) |  | > 100 µM |  | > 100 µM |  | > 100 µM |  | > 100 µM |  | > 100 µM |  | > 100 µM |  | > 100 µM |  | > 100 µM |  | > 100 µM |  | > 100 µM
4 | CCCCCCCCC1C(C)c2c([nH]c3ccccc23)C2C(=O)N(c3ccccc3)C(=O)C21 (stereo not given) |  | 7.18 µM |  | 23.7 µM |  | 25.6 µM |  | 32.7 µM |  | 27.5 µM |  | 51.1 µM |  | 28.4 µM |  | 38 µM |  | 6.84 µM |  | 7.09 µM
5 | Cc1cnc(-c2ccc(-c3ccc(NC(=O)Nc4cccc(C(F)(F)F)c4)cc3F)c3c2C(=O)NC3)[nH]1 | 1.37 µM | > 53.4 µM | 1.97 µM | > 52.8 µM | 28.2 µM | > 59.2 µM | 0.251 µM | 22.7 µM | 2.18 µM | > 44.9 µM | 26 µM | > 50.6 µM | 14.6 µM | > 57.8 µM | 7.49 µM | > 47.9 µM | 2.42 µM | 21.3 µM | 1.31 µM | 18.7 µM
6 | Cc1cc2oc(=O)cc(OC/C=C3/CCC(=O)O3)c2cc1C | 2.25 µM | 13.4 µM | 0.804 µM | 2.04 µM | 15.4 µM | 31 µM | 1.34 µM | 5.7 µM | 3.59 µM | 17.7 µM | 12.9 µM | 30.5 µM | 4.62 µM | 19.5 µM | 13.4 µM | 27.1 µM | 1.83 µM | 9.81 µM | 2.33 µM | 7.25 µM
7 | CCCCCCCCCCCCCC(=O)NO |  | > 49 µM |  | 39.3 µM |  | 28.7 µM |  | 37.9 µM |  | 52.4 µM |  | 54.1 µM |  | 50.7 µM |  | 42.9 µM |  | 19 µM |  | 6.46 µM
8 | CSC(=NC(=O)c1ccccc1)SCCSC(=NC(=O)c1ccccc1)SC |  | > 100 µM |  | > 100 µM |  | > 100 µM |  | > 100 µM |  | > 100 µM |  | > 100 µM |  | > 100 µM |  | > 100 µM |  | > 100 µM |  | > 100 µM
9 | O=C(CS(=O)c1nc2ccccc2nc1-c1ccccc1)Nc1ccc(Cl)cc1 (stereo not given) | 24.4 µM | 69.3 µM | 21.4 µM | 51.1 µM | 28.6 µM | 84.9 µM | 14 µM | > 100 µM | 20.1 µM | 57.5 µM | 29.5 µM | > 100 µM | 38.3 µM | > 100 µM | 32.3 µM | > 100 µM | 30.4 µM | 84.3 µM | 23.4 µM | 56.8 µM
10 | O=c1oc2ccc(I)cc2c(=O)n1-c1ccc(I)cc1F | 1.35 µM | 4.94 µM | 0.616 µM | 11.7 µM | 2.8 µM | 11.1 µM | 0.484 µM | 4.29 µM | 0.308 µM | 2.53 µM | 1.15 µM | 8.21 µM | 0.704 µM | > 31.7 µM | 3 µM | > 51.8 µM | 0.861 µM | 4.16 µM | 1.89 µM | 10.8 µM
11 | Cn1c2ccccc2c2c(=O)n(CCCC(=O)NCCc3cnc[nH]3)c3c(-c4ccccc4)nnn3c21 | 3.95 µM | 21.5 µM | 9.74 µM | 17.9 µM | 9.51 µM | 19.7 µM | 9.26 µM | 17.2 µM | 12 µM | 33.4 µM | 10 µM | 23.9 µM | 10.1 µM | 20.8 µM | 12.8 µM | 24.2 µM | 7.41 µM | 18.2 µM | 1.51 µM | > 50 µM
